Measurements as given in the supplement of paper PMC12698765.
± gives the standard deviation of the averaged measurements.

What was measured:
[1] = tested on: 409B2 hiPSC (iCRISPR Cas9, FRMD7 editing); test: NHEJ-attributed indel frequency relative to solvent control (fold (ratio to mock)); higher = more NHEJ outcomes
Protocol: (§1)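 Subset screen of 55 drugs tested at 5 concentrations around the effective screening dose, in 409B2 iCRISPR Cas9 hiPSCs editing FRMD7 with a ssDNA donor. Drugs were applied for 24 h. Viability was read by resazurin and editing outcomes by amplicon sequencing (HDR, NHEJ <2 bp microhomology, MMEJ ≥2 bp microhomology). Values are relative to solvent mock controls; two biological replicates.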

[2] = tested on: 409B2 hiPSC (iCRISPR Cas9, FRMD7 editing); test: MMEJ-attributed deletion frequency relative to solvent control (fold (ratio to mock)); higher = more MMEJ outcomes
Protocol: as §1

[3] = tested on: 409B2 hiPSC (iCRISPR Cas9, FRMD7 editing); test: cell survival relative to solvent control (fold (ratio to mock)); higher = more surviving cells
Protocol: as §1

[4] = tested on: 409B2 hiPSC (iCRISPR Cas9, FRMD7 editing); test: HDR (precise edit) frequency relative to solvent control (fold (ratio to mock)); higher = more homology-directed repair outcomes
Protocol: as §1

SMILES | NHEJ-attributed indel frequency ([1]; 20 nM) | NHEJ-attributed indel frequency ([1]; 50 nM) | NHEJ-attributed indel frequency ([1]; 100 nM) | NHEJ-attributed indel frequency ([1]; 200 nM) | NHEJ-attributed indel frequency ([1]; 500 nM) | MMEJ-attributed deletion frequency ([2]; 20 nM) | MMEJ-attributed deletion frequency ([2]; 50 nM) | MMEJ-attributed deletion frequency ([2]; 100 nM) | MMEJ-attributed deletion frequency ([2]; 200 nM) | MMEJ-attributed deletion frequency ([2]; 500 nM) | cell survival ([3]; 20 nM) | cell survival ([3]; 50 nM) | cell survival ([3]; 100 nM) | cell survival ([3]; 200 nM) | cell survival ([3]; 500 nM) | HDR ([4]; 20 nM) | HDR ([4]; 50 nM) | HDR ([4]; 100 nM) | HDR ([4]; 200 nM) | HDR ([4]; 500 nM) | NHEJ-attributed indel frequency ([1]; 2000 nM) | NHEJ-attributed indel frequency ([1]; 5000 nM) | NHEJ-attributed indel frequency ([1]; 10000 nM) | NHEJ-attributed indel frequency ([1]; 20000 nM) | NHEJ-attributed indel frequency ([1]; 50000 nM) | MMEJ-attributed deletion frequency ([2]; 2000 nM) | MMEJ-attributed deletion frequency ([2]; 5000 nM) | MMEJ-attributed deletion frequency ([2]; 10000 nM) | MMEJ-attributed deletion frequency ([2]; 20000 nM) | MMEJ-attributed deletion frequency ([2]; 50000 nM) | cell survival ([3]; 2000 nM) | cell survival ([3]; 5000 nM) | cell survival ([3]; 10000 nM) | cell survival ([3]; 20000 nM) | cell survival ([3]; 50000 nM) | HDR ([4]; 2000 nM) | HDR ([4]; 5000 nM) | HDR ([4]; 10000 nM) | HDR ([4]; 20000 nM) | HDR ([4]; 50000 nM)
CC(=O)O[C@]1(C(C)=O)CC[C@H]2[C@@H]3C=C(Cl)C4=CC(=O)[C@@H]5C[C@@H]5[C@]4(C)[C@H]3CC[C@@]21C [Cyproterone Acetate] (in DMSO) | 0.962 ± 0.045 | 0.9767 ± 0.0039 | 0.9929 ± 0.0094 | 1.01 ± 0.014 | 0.964 ± 0.042 | 1.18 ± 0.11 | 0.986 ± 0.03 | 0.9921 ± 0.0047 | 0.915 ± 0.022 | 0.999 ± 0.017 | 0.984 | 1.23 | 1.12 | 1.09 | 1.23 | 1.1 ± 0.048 | 1.119 ± 0.007 | 1.09 ± 0.054 | 1.03 ± 0.013 | 1.14 ± 0.058 |  |  |  |  |  |  |  |  |  |  |  |  |  |  |  |  |  |  |  | 
CCCCCCCCCCCCCC(=O)O [Myristic Acid] (in DMSO) | 0.9964 ± 0.0076 | 1.0053 ± 2.8e-05 | 1.016 ± 0.003 | 0.981 ± 0.024 | 0.967 ± 0.0099 | 0.977 ± 0.13 | 0.921 ± 0.13 | 1.02 ± 0.2 | 1.1 ± 0.051 | 1.03 ± 0.099 | 1.01 | 1.23 | 1.07 | 1.25 | 1.49 | 1.04 ± 0.025 | 1.03 ± 0.072 | 1.034 ± 0.01 | 1.07 ± 0.019 | 1.1 ± 0.064 |  |  |  |  |  |  |  |  |  |  |  |  |  |  |  |  |  |  |  | 
NS(=O)(=O)c1ccccc1 [Benzenesulfonamide] (in DMSO) | 0.951 ± 0.029 | 0.974 ± 0.026 | 0.969 ± 0.028 | 0.995 ± 0.03 | 0.989 ± 0.029 | 0.855 ± 0.14 | 0.92339 ± 0.00028 | 1.05 ± 0.23 | 0.912 ± 0.08 | 0.962 ± 0.038 | 0.86 | 1.22 | 1.05 | 1.13 | 1.17 | 1.14 ± 0.063 | 1.08 ± 0.053 | 1.02 ± 0.038 | 1.1 ± 0.048 | 1.06 ± 0.046 |  |  |  |  |  |  |  |  |  |  |  |  |  |  |  |  |  |  |  | 
CN(C)C(=O)Oc1cccc([N+](C)(C)C)c1 [Hodostin] (in DMSO) |  |  |  |  |  |  |  |  |  |  |  |  |  |  |  |  |  |  |  |  | 0.983 ± 0.013 | 0.992 ± 0.024 | 0.996 ± 0.04 | 0.9928 ± 0.0066 | 0.992 ± 0.029 | 0.943 ± 0.1 | 0.965 ± 0.13 | 0.922 ± 0.014 | 0.944 ± 0.085 | 1.05 ± 0.12 | 0.969 | 1.28 | 1 | 1.14 | 1.29 | 1.13 ± 0.068 | 1.1 ± 0.087 | 1.05 ± 0.15 | 1.15 ± 0.044 | 1.24 ± 0.054
C1CCN2C[C@@H]3C[C@@H](CN4CCCC[C@@H]34)[C@H]2C1 [Sparteine] (in DMSO) | 0.9845 ± 0.0022 | 0.98809 ± 0.00026 | 1.01 ± 0.011 | 0.9919 ± 0.0066 | 0.988 ± 0.035 | 0.908 ± 0.028 | 0.866 ± 0.061 | 0.957 ± 0.098 | 1.03 ± 0.086 | 0.9904 ± 0.0051 | 0.978 | 1.24 | 1 | 1.05 | 1.26 | 1.11 ± 0.044 | 1.001 ± 0.0048 | 1.05 ± 0.061 | 1.04 ± 0.051 | 1.02 ± 0.15 |  |  |  |  |  |  |  |  |  |  |  |  |  |  |  |  |  |  |  | 
C[C@]12CC[C@@H]3c4ccc(O)cc4CC[C@H]3[C@@H]1C[C@@H](O)[C@@H]2O [Estriol] (in DMSO) | 0.994 ± 0.029 | 1.01 ± 0.0089 | 1.01 ± 0.039 | 1.01 ± 0.018 | 1.02 ± 0.025 | 0.961 ± 0.14 | 0.901 ± 0.016 | 0.923 ± 0.1 | 0.917 ± 0.12 | 0.932 ± 0.1 | 0.994 | 1.11 | 0.907 | 1.02 | 0.944 | 1.18 ± 0.038 | 1.03 ± 0.06 | 1.02 ± 0.079 | 1.04 ± 0.094 | 1.08 ± 0.14 | 1.02 ± 0.015 | 0.988 ± 0.043 | 0.987 ± 0.043 | 0.9898 ± 0.0067 | 0.986 ± 0.047 | 0.923 ± 0.2 | 0.996 ± 0.019 | 1 ± 0.038 | 1.04 ± 0.014 | 0.971 ± 0.029 | 0.929 | 1.19 | 1.05 | 0.994 | 1.15 | 0.971 ± 0.021 | 1.12 ± 0.049 | 1.07 ± 0.019 | 1.11 ± 0.019 | 1.15 ± 0.078
